Reference: US10617654B2, “Use of fenoterol and fenoterol analogues in the treatment of glioblastomas and astrocytomas” (priority 2010, dated 2020)
“And” between values parts separate entries of the source, which are not always exact repeats. Equal entries are not always repeated.

Experiments:
rat cardiomyocyte = assay: Rat cardiomyocyte contractility model; type: cell-based
β2-AR [1] = biological target: T1, β2-AR (Homo sapiens (Human), UniProt P07550); settings: previously reported; cited from earlier work
T1 sequence (P07550 whole entry): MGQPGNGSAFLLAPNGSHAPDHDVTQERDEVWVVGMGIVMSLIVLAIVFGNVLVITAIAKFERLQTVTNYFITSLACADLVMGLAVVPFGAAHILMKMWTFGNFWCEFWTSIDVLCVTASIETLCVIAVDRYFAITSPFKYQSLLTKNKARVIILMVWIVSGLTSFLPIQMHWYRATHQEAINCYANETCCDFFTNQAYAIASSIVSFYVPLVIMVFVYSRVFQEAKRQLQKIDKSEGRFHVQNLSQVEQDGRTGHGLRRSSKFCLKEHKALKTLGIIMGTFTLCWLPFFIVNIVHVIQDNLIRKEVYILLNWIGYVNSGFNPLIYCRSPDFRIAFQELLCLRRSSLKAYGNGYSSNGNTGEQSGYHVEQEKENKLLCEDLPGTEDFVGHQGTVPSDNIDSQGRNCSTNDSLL

1321N1 cells = assay: Inhibition of mitogenesis, [3H]-thymidine incorporation in 1321N1 cells; type: cell-based, human; settings: 1321N1 cells
[2] = Brain and plasma analysis of [3H]-(R,R)-methoxyfenoterol after IV administration; type: in vivo, male Sprague-Dawley rats; settings: 5 mg/kg IV; for Brain, Mean / Percent of Dose in Brain, Mean / Plasma, Mean: three rats; for Brain, Individual / Percent of Dose in Brain, Individual / Plasma, Individual: individual rat
Method: An overview of the research study design for evaluating the brain-to-plasma distribution of [^3H]
(specific activity 57 Ci/mmol); vehicle was sterile saline, 0.9% sodium chloride, USP. Dose formulations were prepared on the day of the study. The amount of radioactivity in the dose formulation was determined by liquid scintillation. The study lasted for an hour and radioactivity levels in plasma and brain tissue were evaluated at the conclusion of the study. Approximately 5 mls of whole blood was collected. Blood samples were collected via cardiac puncture, transferred into a tube containing K3EDTA as the anticoagulant and kept on wet ice until processed to plasma. To generate plasma, samples were centrifuged within 15 minutes of collection at 2,500 RPM for 15 minutes at room temperature. Plasma was divided equally into three labeled cryovials and stored on ample dry ice until transferred to a freezer set at ≤−20° C. for storage until analysis. Duplicate aliquots were weighed and then combined with scintillation cocktail. The [^3H] radioactivity was determined on a liquid scintillation counter. Brain samples were snap frozen in liquid nitrogen and stored at ≤−70° C. until analysis. Whole brain tissue was homogenized and the weight of the homogenate was determined. Duplicate aliquots from the homogenate were weighed, solubilized and then combined with scintillation cocktail. The [^3H] radioactivity was determined on a liquid scintillation counter.

β2-AR [3] = biological target: T1, β2-AR; type: cell-based; settings: 1321N1 cells, basal below 0.5 nmol/mg protein
Method: HEK-β2-AR, 1321N1 or U87MG cells were plated in 96-well plates. When the cells reached confluence, the medium was removed and each well rinsed with 0.1 mL of Krebs-HEPES buffer (130 mM NaCl, 4.8 mM KCl, 1.2 mM KH2PO4, 1.3 mM CaCl2, 1.2 mM MgSO4, 25 mM HEPES, and 10 mM glucose, pH 7.3). The plates were preincubated for 10 minutes at room temperature with buffer alone; then test compound diluted in buffer was added to the wells for quadruplicate determinations. The plates were incubated for an additional 10 minutes with the test compound. After incubation, the medium was removed and 0.1 mL of 0.5 M formic acid was added. After a minimum of 1 hour, the supernatant was removed and lyophilized. cAMP was quantitated using the protein kinase binding assay of Gilman. The amount of protein per well was determined using the BCA protein determination kit (Thermo Scientific Pierce, Rockford, Ill.) and was used to calculate the amount of cAMP/mg/well.

[4] = 5 min, listed as [^3H]—(R,R)-methoxyfenoterol
[5] = 60 min, listed as [^3H]—(R,R)-methoxyfenoterol

SMILES: C[C@@H](Cc1ccc(O)cc1)NC[C@@H](O)c1cc(O)cc(O)c1 [(S,S)-1, (S,S)-(+)-Fenoterol]
- EC50 (rat cardiomyocyte): 55 µM

SMILES: CC(C)NCC(O)c1ccc(O)c2[nH]c(=O)ccc12 (centres unmarked) [Compound 50]
- Ki (β2-AR [1]): 0.17 µM
- Ki β1/Ki β2 (β2-AR [1]): 1.7

SMILES: NCC(O)c1ccc(O)c2[nH]c(=O)ccc12 (centres unmarked) [Compound 51]
- Ki (β2-AR [1]): 6.3 µM
- Ki β1/Ki β2 (β2-AR [1]): 1.3

SMILES: Cc1ccc(OCC(O)C(C)NC(C)C)c2c1CCC2 (centres unmarked) [ICI 118-551, reference compound]
- pA2 (1321N1 cells; competitive inhibition of inhibitory effect of (R,R)-fenoterol): 8.9
- slope (pA2 analysis) (1321N1 cells; inhibition of effect of (R,R)-fenoterol): −1.3±0.3

SMILES: COc1ccc(C[C@@H](C)NC[C@H](O)c2cc(O)cc(O)c2)cc1.Cl [[^3H]-(R,R)-methoxyfenoterol]
- Brain, Mean ([2]; 5 min): 0.92 μg-equiv/g
- Percent of Dose in Brain, Mean ([2]; 5 min): 0.14%
- Plasma, Mean ([2]; 5 min): 3.25 μg-equiv/ml
- Brain, Mean [2, 4]: 0.92±0.10 μg-equiv/g
- Plasma, Mean [2, 4]: 3.25±0.15 μg-equiv/ml
- Brain, Mean ([2]; 15 min): 0.80 μg-equiv/g
- Percent of Dose in Brain, Mean ([2]; 15 min): 0.12%
- Plasma, Mean ([2]; 15 min): 1.79 μg-equiv/ml
- Brain, Mean ([2]; 30 min): 0.72 μg-equiv/g
- Percent of Dose in Brain, Mean ([2]; 30 min): 0.11%
- Plasma, Mean ([2]; 30 min): 1.53 μg-equiv/ml
- Brain, Mean ([2]; 60 min): 0.70 μg-equiv/g
- Percent of Dose in Brain, Mean ([2]; 60 min): 0.11%
- Plasma, Mean ([2]; 60 min): 1.24 μg-equiv/ml
- Brain, Mean [2, 5]: 0.70±0.37 μg-equiv/g
- Plasma, Mean [2, 5]: 1.24±0.43 μg-equiv/ml
- percent dose found in the brain, any given animal ([2]; over 60 minutes): no more than 0.17%
- decrease of plasma levels ([2]; from 5 minutes to 60 minutes): 62%
- Brain, Individual ([2]; 5 min): 1.00 μg-equiv/g and 0.80 μg-equiv/g and 0.95 μg-equiv/g
- Percent of Dose in Brain, Individual ([2]; 5 min): 0.15% (2×) and 0.12%
- Plasma, Individual ([2]; 5 min): 3.30 μg-equiv/ml and 3.08 μg-equiv/ml and 3.37 μg-equiv/ml
- Brain, Individual ([2]; 15 min): 0.99 μg-equiv/g and 0.36 μg-equiv/g and 1.06 μg-equiv/g
- Percent of Dose in Brain, Individual ([2]; 15 min): 0.15% and 0.06% and 0.16%
- Plasma, Individual ([2]; 15 min): 2.19 μg-equiv/ml and 0.89 μg-equiv/ml and 2.29 μg-equiv/ml
- Brain, Individual ([2]; 30 min): 0.22 μg-equiv/g and 1.00 μg-equiv/g and 0.95 μg-equiv/g
- Percent of Dose in Brain, Individual ([2]; 30 min): 0.03% and 0.15% (2×)
- Plasma, Individual ([2]; 30 min): 0.63 μg-equiv/ml and 1.97 μg-equiv/ml and 2.00 μg-equiv/ml
- Brain, Individual ([2]; 60 min): 0.44 μg-equiv/g and 0.53 μg-equiv/g and 1.12 μg-equiv/g
- Percent of Dose in Brain, Individual ([2]; 60 min): 0.06% and 0.09% and 0.17%
- Plasma, Individual ([2]; 60 min): 0.97 μg-equiv/ml and 1.01 μg-equiv/ml and 1.73 μg-equiv/ml

SMILES: C=C[C@@]1(C)CC(=O)[C@]2(O)[C@@]3(C)[C@@H](O)CCC(C)(C)[C@@H]3[C@H](O)[C@H](OC(C)=O)[C@@]2(C)O1 [forskolin]
- intracellular concentration of cAMP after treatment (β2-AR [3]): ~4 nmol/mg protein
